In PubChem BioAssay (NCI):
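Five concentrations, 48 hours, 96-well plates. GI50 = concentration required for 50% inhibition of growth. The concentration for full growth arrest is given as TGI.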

Experiments:
Test in all cases: NCI-60 cell line screen, 48 h
[1] = test system: 786-0 renal
[2] = test system: ACHN renal
[3] = test system: HT29 colon
[4] = test system: LOX IMVI melanoma
[5] = test system: SF-295 CNS
[6] = test system: SK-MEL-28 melanoma
[7] = test system: SN12C renal
[8] = test system: SW-620 colon
[9] = test system: SR leukemia

SMILES | TGI [1] | TGI [2] | TGI [3] | TGI [4] | TGI [5] | TGI [6] | TGI [7] | TGI [8] | TGI [9] | GI50 [1] | GI50 [3] | GI50 [4] | GI50 [5] | GI50 [6] | GI50 [7] | GI50 [9]
Cc1ccccc1-n1c(C)nc(-c2ccccc2)cc1=O | > 100 µM | > 100 µM | > 100 µM | > 100 µM | > 100 µM | > 100 µM | > 100 µM | > 100 µM | – | – | – | – | – | – | – | –
O=C(O)c1ccccc1NC(=O)C1CCCCC1 | > 100 µM | > 100 µM | > 100 µM | > 100 µM | > 100 µM | > 100 µM | > 100 µM | > 100 µM | – | – | – | – | – | – | – | –
C[C@H]1C(=O)CC[C@]2(C)CCC(C(C)(C)O)CC12O (some centres undefined) | > 100 µM | > 100 µM | > 100 µM | > 100 µM | > 100 µM | > 100 µM | > 100 µM | > 100 µM | > 100 µM | – | – | – | – | – | – | –
c1ccc2c(c1)C1=NCCN1c1ccccc1-2 | 10 µM | 7.36 µM | 7.85 µM | 10.4 µM | 31.4 µM | 15.2 µM | 9.92 µM | 11.6 µM | 2.41 µM | – | – | – | – | – | – | –
O=S(=O)(C/C(=N\O)c1ccccc1)c1ccccc1 | > 100 µM | > 100 µM | > 100 µM | > 100 µM | > 100 µM | > 100 µM | > 100 µM | > 100 µM | – | – | – | – | – | – | – | –
CCCNc1nc2ccccc2c2c1S(=O)(=O)c1ccc(Cl)cc1C2=O | > 50 µM | – | > 50 µM | > 50 µM | > 50 µM | > 50 µM | 3.24 µM | – | > 50 µM | 1.7 µM | 1.65 µM | 1.28 µM | 1.67 µM | 1.61 µM | 0.648 µM | 0.79 µM
Nc1n[nH]c(CCc2nc(N)n[nH]2)n1 | > 100 µM | > 100 µM | > 100 µM | > 100 µM | > 100 µM | > 100 µM | > 100 µM | > 100 µM | – | – | – | – | – | – | – | –
COC1=C2CC(C)CC(OC)C(O)C(C)/C=C(\C)C(OC(N)=O)C(OC)/C=C\C=C(/C)C(=O)NC(=C(/C=N/N3CCCCC3)C1=O)C2=O (centres undefined) | 22.8 µM | 28.8 µM | 26.6 µM | 22.3 µM | 30.1 µM | 37 µM | 15.5 µM | 8.7 µM | 7.48 µM | – | – | – | – | – | – | –
Cc1cc2c(C)n(Cc3ccc(Cl)cc3Cl)nc2c(C(=O)O)c1C | > 100 µM | > 100 µM | > 100 µM | > 100 µM | > 100 µM | > 100 µM | > 100 µM | > 100 µM | – | – | – | – | – | – | – | –
CC1=CC(=O)N(c2c(C)cccc2Cl)C(C)N1 (centres undefined) | > 100 µM | > 100 µM | > 100 µM | > 100 µM | > 100 µM | > 100 µM | > 100 µM | > 100 µM | – | – | – | – | – | – | – | –
O=C1C=CC(CC(=O)c2ccc3ccccc3c2)O1 (centres undefined) | 39.1 µM | > 100 µM | 33.1 µM | 35.8 µM | > 100 µM | > 100 µM | 36 µM | 49.5 µM | 83.1 µM | – | – | – | – | – | – | –
COC(=O)C1=CC2OC1(C)CCC2=O (centres undefined) | > 100 µM | > 100 µM | > 100 µM | > 100 µM | > 100 µM | > 100 µM | > 100 µM | > 100 µM | > 100 µM | – | – | – | – | – | – | –
COc1ccc2c(c1OC)C(=O)c1cnccc1C2=O | > 100 µM | > 100 µM | > 100 µM | > 100 µM | > 100 µM | > 100 µM | > 100 µM | > 100 µM | > 100 µM | – | – | – | – | – | – | –
CCCCCCC(/C=N/O)C(C)(O)CCC (centres undefined) | > 100 µM | > 100 µM | > 100 µM | > 100 µM | > 100 µM | > 100 µM | > 100 µM | > 100 µM | – | – | – | – | – | – | – | –
O=C1c2nc3n(c2C(=O)c2c1nc1n2CCC1)CCC3 | > 47.8 µM | 23.9 µM | 10.8 µM | 13.4 µM | 17.9 µM | 31.3 µM | 14.5 µM | 17.2 µM | > 40.6 µM | 9.25 µM | 5.14 µM | 3.75 µM | 6.72 µM | – | 9.48 µM | 3.58 µM
O=[N+]([O-])c1ccc(Cl)cc1C1SCc2nc3ccccc3n21 (centres undefined) | > 100 µM | 27.4 µM | > 100 µM | – | > 100 µM | > 100 µM | > 100 µM | > 100 µM | – | – | – | – | – | – | – | –
O=C(NO)c1ccc(O)c(O)c1 | > 100 µM | > 100 µM | > 100 µM | – | > 100 µM | > 100 µM | > 100 µM | > 100 µM | > 100 µM | – | – | – | – | – | – | –
